Laboratory results as given in patent US5834453A, “Methods for the manufacture and use of antimicrobial sterol conjugates” (Lehigh University, priority 1997, dated 1998).
≈ marks a conversion by molar mass, not a printed value.

Columns and labels:
[1] = test system: P. vulgaris (13315); assay: MIC, micro-broth dilution; assay type: cell-based; conditions: Proteus vulgaris, 35° C., 24 hours, read-out: ANTIMICROBIAL ACTIVITY (MIC)
Method: (§1) The antimicrobial activity of the compounds according to the present invention were compared with the results obtained for squalamine as reported in Proc. Nat. Acad. Sci. USA 90:1354 (1993), supra, the disclosure of which is incorporated in toto herein. The data reported in the following table is the minimum inhibitory concentration (MIC) required for complete inhibition of microbial growth. The MIC was determined utilizing known micro-broth dilution methods in which inocula of 10^6 /ml of the test organism were incubated in 0.5× trypticase soy broth at 35° C. for 24 hours. MIC's were also tested under various pH conditions, with calcium chloride or magnesium chloride, or with immobilized horse serum.
(§2) The numbers in parentheses contained in the table correspond to accession numbers with the American Type Culture Collection (reference strains were either obtained from the American Type Culture Collection or from the Microbiology Laboratory at Memorial Sloan-Kettering Cancer Center; Bacterial strains were maintained on Columbia 5% sheep blood agar plates, and fungi were maintained on Sabouraud Dextrose agar plates).

[2] = test system: C. neoformans (M68979); assay: MIC, micro-broth dilution; assay type: cell-based; conditions: Cryptococcus neoformans, 24 h, read-out: ANTIMICROBIAL ACTIVITY (MIC)
Method: as §1, §2

[3] = test system: C. albicans (90028); assay: MIC, micro-broth dilution; assay type: cell-based; conditions: Candida albicans, 35° C., 24 hours, read-out: ANTIMICROBIAL ACTIVITY (MIC)
Method: as §1, §2

[4] = test system: S. marcescens (13880); assay: MIC, micro-broth dilution; assay type: cell-based; conditions: Serratia marcescens, 24 h, read-out: ANTIMICROBIAL ACTIVITY (MIC)
Method: as §1, §2

[5] = test system: S. aureus (25923); assay: MIC, micro-broth dilution; assay type: cell-based; conditions: Staphylococcus aureus, 35° C., 24 hours, read-out: ANTIMICROBIAL ACTIVITY (MIC)
Method: as §1, §2

[6] = test system: P. aeruginosa (2853); assay: MIC, micro-broth dilution; assay type: cell-based; conditions: Pseudomonas aeruginosa, 24 h, read-out: ANTIMICROBIAL ACTIVITY (MIC)
Method: as §1, §2

[7] = test system: S. aureus (29213); assay: MIC, micro-broth dilution; assay type: cell-based; conditions: Staphylococcus aureus, 24 h, read-out: ANTIMICROBIAL ACTIVITY (MIC)
Method: as §1, §2

[8] = test system: E. coli (25922); assay: MIC, micro-broth dilution; assay type: cell-based; conditions: Escherichia coli, 35° C., 24 hours, read-out: ANTIMICROBIAL ACTIVITY (MIC)
Method: as §1, §2

[9] = test system: S. epidermidis (12228); assay: MIC, micro-broth dilution; assay type: cell-based; conditions: Staphylococcus epidermidis, 35° C., 24 hours, read-out: ANTIMICROBIAL ACTIVITY (MIC)
Method: as §1, §2

[10] = Hemolytic activity, minimal hemolytic concentration (MHC); assay type: cell-based, sheep; conditions: for MCC at 24 h: sheep, red blood cells;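 as to MCC: MCC here is the minimal hemolytic concentration (MHC)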
Method: Hemolytic activity of the squalamine mimics according to the present invention were also studied by incubating sheep red blood cells for 24 hours at 37° C. in saline (final concentration of 0.5%) with or without respective concentrations of the squalamine mimics. The minimal hemolytic concentration (MHC) was determined as the lowest concentration of a mimic that raised visible hemolysis.

[11] = test system: A. fumigatus (H29709); assay: MIC, micro-broth dilution; assay type: cell-based; conditions: Aspergillus fumigatus, 35° C., 24 hours, read-out: ANTIMICROBIAL ACTIVITY (MIC)
Method: as §1, §2

[12] = test system: S. pneumoniae (6305); assay: MIC, micro-broth dilution; assay type: cell-based; conditions: Streptococcus pneumoniae, 35° C., 24 hours, read-out: ANTIMICROBIAL ACTIVITY (MIC)
Method: as §1, §2

[13] = test system: P. aeruginosa (10145); assay: MIC, micro-broth dilution; assay type: cell-based; conditions: Pseudomonas aeruginosa, 35° C., 24 hours, read-out: ANTIMICROBIAL ACTIVITY (MIC)
Method: as §1, §2

[14] = test system: E. faecium (T6480-9); assay: MIC, micro-broth dilution; assay type: cell-based; conditions: Enterococcus faecium, 35° C., 24 hours, read-out: ANTIMICROBIAL ACTIVITY (MIC)
Method: as §1, §2

[15] = test system: S. agalactiae (13813); assay: MIC, micro-broth dilution; assay type: cell-based; conditions: Streptococcus agalactiae, 35° C., 24 hours, read-out: ANTIMICROBIAL ACTIVITY (MIC)
Method: as §1, §2

[16] = test system: E. faecalis (29212); assay: MIC, micro-broth dilution; assay type: cell-based; conditions: Enterococcus faecalis, 35° C., 24 hours, read-out: ANTIMICROBIAL ACTIVITY (MIC)
Method: as §1, §2

[17] = test system: E. cloacae (13047); assay: MIC, micro-broth dilution; assay type: cell-based; conditions: Enterobacter cloacae, 35° C., 24 hours, read-out: ANTIMICROBIAL ACTIVITY (MIC)
Method: as §1, §2

[18] = test system: S. pyrogenes (19615); assay: MIC, micro-broth dilution; assay type: cell-based; conditions: 24 h, read-out: ANTIMICROBIAL ACTIVITY (MIC)
Method: as §1, §2

[19] = test system: S. aureus (H20809); assay: MIC, micro-broth dilution; assay type: cell-based; conditions: Staphylococcus aureus, 24 h, read-out: ANTIMICROBIAL ACTIVITY (MIC)
Method: as §1, §2

[20] = test system: C. neoformans (90012); assay: MIC, micro-broth dilution; assay type: cell-based; conditions: Cryptococcus neoformans, 24 h, read-out: ANTIMICROBIAL ACTIVITY (MIC)
Method: as §1, §2

[21] = test system: A. fumigatus (H1120); assay: MIC, micro-broth dilution; assay type: cell-based; conditions: Aspergillus fumigatus, 35° C., 24 hours, read-out: ANTIMICROBIAL ACTIVITY (MIC)
Method: as §1, §2

[22] = test system: K. pneumoniae (13883); assay: MIC, micro-broth dilution; assay type: cell-based; conditions: Klebsiella pneumoniae, 24 h, read-out: ANTIMICROBIAL ACTIVITY (MIC)
Method: as §1, §2

## C[C@H](C(=O)NCCCNCCCCNCCCN)[C@H]1CC[C@H]2[C@@H]3CC=C4C[C@@H](O)CC[C@]4(C)[C@H]3CC[C@]12C [SM-1, 23,24-Bisnor-3β-ol-5-cholenic acid 3-ol spermine conjugate]
[1]
  MIC: 25 µg/mL (≈ 47.1 µM)
[2]
  MIC: 6.25 µg/mL (≈ 11.8 µM)
[3]
  MIC: 100 µg/mL (≈ 188 µM)
[4]
  MIC: > 100 µg/mL
[5]
  MIC: 3.13 µg/mL (≈ 5.9 µM)
[6]
  MIC: 1.56 µg/mL (≈ 2.94 µM)
[7]
  MIC: 6.25 µg/mL (≈ 11.8 µM)
[8]
  MIC: 12.5 µg/mL (≈ 23.5 µM)
[9]
  MIC: 1.56 µg/mL (≈ 2.94 µM)
[10]; sheep red blood cells, 24 hours at 37° C. in saline
  minimal hemolytic concentration (MHC) at 24 h: 100 µg/mL

## C[C@H](C(=O)NCCNCCNCCN)[C@H]1CC[C@H]2[C@@H]3CC=C4C[C@@H](O)CC[C@]4(C)[C@H]3CC[C@]12C [SM-5]
[1]
  MIC: > 100 µg/mL
[11]
  MIC: > 100 µg/mL
[12]
  MIC: > 100 µg/mL
[2]
  MIC: > 100 µg/mL
[3]
  MIC: > 100 µg/mL
[13]
  MIC: 25 µg/mL (≈ 52.7 µM)
[14]
  MIC: > 100 µg/mL
[15]
  MIC: > 100 µg/mL
[4]
  MIC: > 100 µg/mL
[16]
  MIC: > 100 µg/mL
[17]
  MIC: > 100 µg/mL
[5]
  MIC: 50 µg/mL (≈ 105 µM)
[6]
  MIC: 25 µg/mL (≈ 52.7 µM)
[18]
  MIC: 6.25 µg/mL (≈ 13.2 µM)
[19]
  MIC: > 100 µg/mL
[7]
  MIC: 100 µg/mL (≈ 211 µM)
[20]
  MIC: > 100 µg/mL
[8]
  MIC: 100 µg/mL (≈ 211 µM)
[21]
  MIC: > 100 µg/mL
[9]
  MIC: 25 µg/mL (≈ 52.7 µM)
[22]
  MIC: > 100 µg/mL
[10]
  MCC at 24 h: > 100 µg/mL

## C[C@H](CCC(=O)NCCCNCCCCNCCCN)[C@H]1CC[C@H]2[C@@H]3CC[C@@H]4C[C@H](OS(=O)(=O)O)CC[C@]4(C)[C@H]3C[C@H](OS(=O)(=O)O)[C@]12C [SM-8]
[1]
  MIC: 50 µg/mL (≈ 67.8 µM)
[11]
  MIC: > 100 µg/mL
[12]
  MIC: 50 µg/mL (≈ 67.8 µM)
[2]
  MIC: 50 µg/mL (≈ 67.8 µM)
[3]
  MIC: 100 µg/mL (≈ 136 µM)
[13]
  MIC: 100 µg/mL (≈ 136 µM)
[14]
  MIC: 100 µg/mL (≈ 136 µM)
[15]
  MIC: 50 µg/mL (≈ 67.8 µM)
[4]
  MIC: > 100 µg/mL
[16]
  MIC: > 100 µg/mL
[17]
  MIC: > 100 µg/mL
[5]
  MIC: 25 µg/mL (≈ 33.9 µM)
[6]
  MIC: 25 µg/mL (≈ 33.9 µM)
[18]
  MIC: 6.25 µg/mL (≈ 8.48 µM)
[19]
  MIC: 25 µg/mL (≈ 33.9 µM)
[7]
  MIC: 25 µg/mL (≈ 33.9 µM)
[20]
  MIC: 50 µg/mL (≈ 67.8 µM)
[8]
  MIC: > 100 µg/mL
[21]
  MIC: > 100 µg/mL
[9]
  MIC: 25 µg/mL (≈ 33.9 µM)
[22]
  MIC: 50 µg/mL (≈ 67.8 µM)
[10]
  MCC at 24 h: > 100 µg/mL

## C[C@H](CCCNCCCCN)[C@H]1CC[C@H]2[C@@H]3CC[C@@H]4C[C@H](O)CC[C@]4(C)[C@H]3C[C@H](O)[C@]12C [SM-9H]
[1]
  MIC: 12.5 µg/mL (≈ 27.9 µM)
[11]
  MIC: 6.25 µg/mL (≈ 13.9 µM)
[12]
  MIC: 6.25 µg/mL (≈ 13.9 µM)
[2]
  MIC: 0.78 µg/mL (≈ 1.74 µM)
[3]
  MIC: 3.13 µg/mL (≈ 6.98 µM)
[13]
  MIC: 12.5 µg/mL (≈ 27.9 µM)
[14]
  MIC: 25 µg/mL (≈ 55.7 µM)
[15]
  MIC: 3.13 µg/mL (≈ 6.98 µM)
[4]
  MIC: > 100 µg/mL
[16]
  MIC: 6.25 µg/mL (≈ 13.9 µM)
[17]
  MIC: 100 µg/mL (≈ 223 µM)
[5]
  MIC: 1.56 µg/mL (≈ 3.48 µM)
[6]
  MIC: 6.25 µg/mL (≈ 13.9 µM)
[18]
  MIC: 0.78 µg/mL (≈ 1.74 µM)
[19]
  MIC: 3.13 µg/mL (≈ 6.98 µM)
[7]
  MIC: 1.56 µg/mL (≈ 3.48 µM)
[20]
  MIC: 0.78 µg/mL (≈ 1.74 µM)
[8]
  MIC: 25 µg/mL (≈ 55.7 µM)
[21]
  MIC: 12.5 µg/mL (≈ 27.9 µM)
[9]
  MIC: 1.56 µg/mL (≈ 3.48 µM)
[22]
  MIC: 50 µg/mL (≈ 111 µM)
[10]
  MCC at 24 h: 50 µg/mL
